Assays:
[1] = target: NT-3 growth factor receptor (Homo sapiens) (UniProt Q16288); assay: Inhibition of TRKC (unknown origin) at 0.5 uM relative to control
[2] = target: BDNF/NT-3 growth factors receptor (Homo sapiens) (UniProt Q16620); assay: Inhibition of TRKB (unknown origin) at 0.5 uM relative to control
[3] = target: Mast/stem cell growth factor receptor Kit (Homo sapiens) (UniProt P10721); assay: Inhibition of KIT (unknown origin) at 0.5 uM relative to control
[4] = target: Serine/threonine-protein kinase 10 (Homo sapiens) (UniProt O94804); assay: Inhibition of LOK (unknown origin) at 0.5 uM relative to control
[5] = target: T1, Homeodomain-interacting protein kinase 4 (Homo sapiens, UniProt Q8NE63); assay: Inhibition of HIPK4 (unknown origin)
T1 sequence (Q8NE63 whole entry): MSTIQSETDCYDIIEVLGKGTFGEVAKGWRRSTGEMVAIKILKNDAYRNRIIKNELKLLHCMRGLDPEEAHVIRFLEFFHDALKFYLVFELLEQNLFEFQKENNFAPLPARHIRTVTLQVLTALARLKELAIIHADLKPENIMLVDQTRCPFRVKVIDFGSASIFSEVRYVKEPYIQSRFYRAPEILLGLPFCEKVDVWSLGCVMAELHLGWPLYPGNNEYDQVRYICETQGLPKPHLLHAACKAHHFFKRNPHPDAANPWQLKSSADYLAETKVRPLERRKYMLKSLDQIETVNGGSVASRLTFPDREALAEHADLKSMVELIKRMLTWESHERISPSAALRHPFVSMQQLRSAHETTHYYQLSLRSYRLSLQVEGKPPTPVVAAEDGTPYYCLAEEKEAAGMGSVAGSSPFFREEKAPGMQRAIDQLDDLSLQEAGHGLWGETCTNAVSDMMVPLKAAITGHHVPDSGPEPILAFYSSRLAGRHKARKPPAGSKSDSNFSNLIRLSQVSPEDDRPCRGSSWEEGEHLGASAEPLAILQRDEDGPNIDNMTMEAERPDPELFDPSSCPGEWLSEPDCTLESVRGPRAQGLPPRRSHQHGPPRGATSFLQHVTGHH

[6] = target: High affinity nerve growth factor receptor (Homo sapiens) (UniProt P04629); assay: Inhibition of TRKA (unknown origin) at 0.5 uM relative to control
[7] = target: Protein-tyrosine kinase 6 (Homo sapiens) (UniProt Q13882); assay: Inhibition of BRK (unknown origin) at 0.5 uM relative to control
[8] = target: T2, Ephrin type-B receptor 2 (Homo sapiens) (UniProt P29323); assay: Inhibition of EPHB2 (unknown origin) at 0.5 uM relative to control
T2 sequence (whole entry): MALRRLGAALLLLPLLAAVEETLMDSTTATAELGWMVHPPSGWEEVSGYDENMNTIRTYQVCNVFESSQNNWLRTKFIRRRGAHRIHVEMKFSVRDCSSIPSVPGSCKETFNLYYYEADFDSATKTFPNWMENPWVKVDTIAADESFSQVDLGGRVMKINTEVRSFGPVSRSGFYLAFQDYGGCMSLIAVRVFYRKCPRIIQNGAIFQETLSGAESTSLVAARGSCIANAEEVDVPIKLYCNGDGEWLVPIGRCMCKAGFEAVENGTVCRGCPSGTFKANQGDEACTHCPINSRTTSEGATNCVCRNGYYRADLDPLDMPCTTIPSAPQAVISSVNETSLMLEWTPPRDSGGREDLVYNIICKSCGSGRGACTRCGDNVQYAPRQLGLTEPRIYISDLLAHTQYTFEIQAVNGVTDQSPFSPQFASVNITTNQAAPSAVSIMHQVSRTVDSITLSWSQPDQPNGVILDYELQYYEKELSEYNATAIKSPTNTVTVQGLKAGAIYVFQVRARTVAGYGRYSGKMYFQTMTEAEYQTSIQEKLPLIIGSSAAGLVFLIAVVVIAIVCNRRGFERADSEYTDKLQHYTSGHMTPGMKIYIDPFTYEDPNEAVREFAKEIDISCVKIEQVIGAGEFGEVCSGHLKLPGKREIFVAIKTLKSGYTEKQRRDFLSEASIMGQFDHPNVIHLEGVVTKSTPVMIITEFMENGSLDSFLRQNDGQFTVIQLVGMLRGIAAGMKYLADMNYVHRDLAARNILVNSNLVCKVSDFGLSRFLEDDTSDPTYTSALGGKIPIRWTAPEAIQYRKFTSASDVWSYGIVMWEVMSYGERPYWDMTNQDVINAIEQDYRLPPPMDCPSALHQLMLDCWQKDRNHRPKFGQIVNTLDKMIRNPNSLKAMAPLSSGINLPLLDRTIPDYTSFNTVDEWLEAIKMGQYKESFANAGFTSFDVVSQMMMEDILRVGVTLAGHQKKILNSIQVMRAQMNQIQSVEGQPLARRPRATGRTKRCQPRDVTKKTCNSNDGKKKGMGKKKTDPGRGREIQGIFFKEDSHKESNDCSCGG

[9] = target: Tyrosine-protein kinase Lck (Homo sapiens) (UniProt P06239); assay: Inhibition of LCK (unknown origin) at 0.5 uM relative to control
Tyrosine-protein kinase Lck (Homo sapiens), sequence (P06239 2-509 limits assumed): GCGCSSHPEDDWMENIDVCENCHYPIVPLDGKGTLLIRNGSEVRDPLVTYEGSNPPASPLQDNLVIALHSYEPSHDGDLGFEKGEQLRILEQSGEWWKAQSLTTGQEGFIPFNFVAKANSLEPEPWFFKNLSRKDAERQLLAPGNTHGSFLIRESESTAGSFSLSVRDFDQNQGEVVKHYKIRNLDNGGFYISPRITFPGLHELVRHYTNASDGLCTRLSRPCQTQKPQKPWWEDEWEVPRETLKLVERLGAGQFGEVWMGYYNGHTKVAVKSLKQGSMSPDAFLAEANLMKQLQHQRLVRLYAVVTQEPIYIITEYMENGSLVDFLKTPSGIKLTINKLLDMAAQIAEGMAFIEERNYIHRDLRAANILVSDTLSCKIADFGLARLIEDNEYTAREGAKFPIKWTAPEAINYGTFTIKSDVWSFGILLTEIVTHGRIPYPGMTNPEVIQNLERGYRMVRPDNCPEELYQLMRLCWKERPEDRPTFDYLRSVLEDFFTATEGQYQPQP

High affinity nerve growth factor receptor (Homo sapiens), sequence (P04629 33-796 limits assumed): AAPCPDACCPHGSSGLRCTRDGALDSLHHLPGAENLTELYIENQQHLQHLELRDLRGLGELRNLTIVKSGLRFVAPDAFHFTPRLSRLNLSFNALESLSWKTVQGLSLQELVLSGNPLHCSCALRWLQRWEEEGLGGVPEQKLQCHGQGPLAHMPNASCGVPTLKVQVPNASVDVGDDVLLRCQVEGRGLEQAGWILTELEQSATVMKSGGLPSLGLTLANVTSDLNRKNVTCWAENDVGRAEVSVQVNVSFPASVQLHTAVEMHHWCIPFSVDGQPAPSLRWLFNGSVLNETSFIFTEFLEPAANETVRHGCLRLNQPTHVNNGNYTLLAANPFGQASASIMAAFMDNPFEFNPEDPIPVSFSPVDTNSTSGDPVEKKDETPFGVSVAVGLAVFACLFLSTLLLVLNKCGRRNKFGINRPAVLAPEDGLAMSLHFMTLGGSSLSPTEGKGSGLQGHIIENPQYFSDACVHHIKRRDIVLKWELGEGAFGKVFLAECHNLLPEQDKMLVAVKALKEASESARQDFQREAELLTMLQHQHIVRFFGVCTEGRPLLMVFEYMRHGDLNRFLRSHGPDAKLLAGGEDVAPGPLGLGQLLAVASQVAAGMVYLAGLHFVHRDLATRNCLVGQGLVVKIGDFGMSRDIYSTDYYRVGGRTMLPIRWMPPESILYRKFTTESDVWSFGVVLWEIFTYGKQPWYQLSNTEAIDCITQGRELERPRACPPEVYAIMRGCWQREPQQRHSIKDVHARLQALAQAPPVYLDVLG
Mast/stem cell growth factor receptor Kit (Homo sapiens), sequence (P10721 whole entry): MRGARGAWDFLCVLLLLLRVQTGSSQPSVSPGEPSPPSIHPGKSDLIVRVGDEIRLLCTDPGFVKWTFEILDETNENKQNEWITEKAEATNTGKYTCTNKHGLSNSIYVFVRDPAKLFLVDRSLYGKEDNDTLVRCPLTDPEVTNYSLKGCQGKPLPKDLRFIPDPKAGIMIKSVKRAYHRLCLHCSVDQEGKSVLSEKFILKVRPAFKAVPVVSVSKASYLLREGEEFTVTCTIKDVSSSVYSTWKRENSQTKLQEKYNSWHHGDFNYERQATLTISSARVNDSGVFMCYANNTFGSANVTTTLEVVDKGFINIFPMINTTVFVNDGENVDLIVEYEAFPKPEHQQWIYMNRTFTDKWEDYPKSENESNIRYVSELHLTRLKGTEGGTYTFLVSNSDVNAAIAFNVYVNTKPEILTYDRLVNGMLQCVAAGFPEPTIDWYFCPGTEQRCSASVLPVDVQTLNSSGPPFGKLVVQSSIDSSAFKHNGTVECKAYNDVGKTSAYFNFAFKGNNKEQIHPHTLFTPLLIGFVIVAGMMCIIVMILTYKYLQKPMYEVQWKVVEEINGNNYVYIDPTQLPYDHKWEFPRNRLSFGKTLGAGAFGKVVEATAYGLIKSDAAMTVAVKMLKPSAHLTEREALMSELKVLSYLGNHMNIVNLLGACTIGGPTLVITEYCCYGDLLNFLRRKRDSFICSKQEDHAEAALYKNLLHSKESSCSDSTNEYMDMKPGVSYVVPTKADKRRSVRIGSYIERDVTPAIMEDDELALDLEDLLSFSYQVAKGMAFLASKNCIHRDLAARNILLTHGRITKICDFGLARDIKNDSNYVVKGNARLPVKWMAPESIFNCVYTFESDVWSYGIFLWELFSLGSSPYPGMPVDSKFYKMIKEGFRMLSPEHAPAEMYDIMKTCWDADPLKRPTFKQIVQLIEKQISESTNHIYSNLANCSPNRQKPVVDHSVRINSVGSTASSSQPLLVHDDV
NT-3 growth factor receptor (Homo sapiens), sequence (Q16288 32-839 limits assumed): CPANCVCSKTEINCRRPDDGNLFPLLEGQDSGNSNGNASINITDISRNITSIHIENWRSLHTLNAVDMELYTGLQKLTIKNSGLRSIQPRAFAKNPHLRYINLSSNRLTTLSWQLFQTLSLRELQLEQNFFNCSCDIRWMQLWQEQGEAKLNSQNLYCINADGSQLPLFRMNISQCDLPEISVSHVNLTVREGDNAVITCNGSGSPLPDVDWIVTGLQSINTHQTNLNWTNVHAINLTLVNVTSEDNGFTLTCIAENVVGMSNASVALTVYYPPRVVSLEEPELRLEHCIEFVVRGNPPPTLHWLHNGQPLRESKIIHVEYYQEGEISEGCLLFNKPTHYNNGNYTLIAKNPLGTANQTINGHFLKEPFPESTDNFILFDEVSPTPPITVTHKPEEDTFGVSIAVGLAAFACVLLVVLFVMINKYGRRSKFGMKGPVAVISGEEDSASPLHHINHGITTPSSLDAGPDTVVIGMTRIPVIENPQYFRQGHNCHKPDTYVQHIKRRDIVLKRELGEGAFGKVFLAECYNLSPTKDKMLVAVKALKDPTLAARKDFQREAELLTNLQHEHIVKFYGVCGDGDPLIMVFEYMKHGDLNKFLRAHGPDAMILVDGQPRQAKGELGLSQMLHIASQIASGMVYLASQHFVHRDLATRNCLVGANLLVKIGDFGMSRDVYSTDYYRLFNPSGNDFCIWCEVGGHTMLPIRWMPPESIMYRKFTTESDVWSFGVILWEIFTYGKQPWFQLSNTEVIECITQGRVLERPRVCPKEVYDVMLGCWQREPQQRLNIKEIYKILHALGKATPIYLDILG
BDNF/NT-3 growth factors receptor (Homo sapiens), sequence (Q16620 32-822 limits assumed): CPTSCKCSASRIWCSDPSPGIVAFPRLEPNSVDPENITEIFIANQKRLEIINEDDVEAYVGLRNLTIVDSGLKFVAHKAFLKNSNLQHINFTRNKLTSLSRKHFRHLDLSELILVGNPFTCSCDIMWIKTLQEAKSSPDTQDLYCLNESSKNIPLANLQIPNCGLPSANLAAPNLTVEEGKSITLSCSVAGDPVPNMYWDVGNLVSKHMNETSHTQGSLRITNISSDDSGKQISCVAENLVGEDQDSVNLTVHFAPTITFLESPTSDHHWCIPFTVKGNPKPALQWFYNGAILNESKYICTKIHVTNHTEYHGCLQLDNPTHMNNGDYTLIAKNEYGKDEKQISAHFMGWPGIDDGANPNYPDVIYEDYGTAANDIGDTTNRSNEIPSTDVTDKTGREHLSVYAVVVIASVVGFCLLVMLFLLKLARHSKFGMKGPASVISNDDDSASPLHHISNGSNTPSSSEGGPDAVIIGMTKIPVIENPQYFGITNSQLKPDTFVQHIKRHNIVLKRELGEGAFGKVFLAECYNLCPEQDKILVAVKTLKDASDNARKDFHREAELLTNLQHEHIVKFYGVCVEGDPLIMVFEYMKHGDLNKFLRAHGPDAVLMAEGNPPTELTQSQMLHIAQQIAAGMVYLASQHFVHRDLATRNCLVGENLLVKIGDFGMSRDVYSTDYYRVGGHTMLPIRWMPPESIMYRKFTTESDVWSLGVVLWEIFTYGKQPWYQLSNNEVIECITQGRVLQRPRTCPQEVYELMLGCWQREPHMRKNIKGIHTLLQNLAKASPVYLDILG
Serine/threonine-protein kinase 10 (Homo sapiens), sequence (O94804 whole entry, looked up): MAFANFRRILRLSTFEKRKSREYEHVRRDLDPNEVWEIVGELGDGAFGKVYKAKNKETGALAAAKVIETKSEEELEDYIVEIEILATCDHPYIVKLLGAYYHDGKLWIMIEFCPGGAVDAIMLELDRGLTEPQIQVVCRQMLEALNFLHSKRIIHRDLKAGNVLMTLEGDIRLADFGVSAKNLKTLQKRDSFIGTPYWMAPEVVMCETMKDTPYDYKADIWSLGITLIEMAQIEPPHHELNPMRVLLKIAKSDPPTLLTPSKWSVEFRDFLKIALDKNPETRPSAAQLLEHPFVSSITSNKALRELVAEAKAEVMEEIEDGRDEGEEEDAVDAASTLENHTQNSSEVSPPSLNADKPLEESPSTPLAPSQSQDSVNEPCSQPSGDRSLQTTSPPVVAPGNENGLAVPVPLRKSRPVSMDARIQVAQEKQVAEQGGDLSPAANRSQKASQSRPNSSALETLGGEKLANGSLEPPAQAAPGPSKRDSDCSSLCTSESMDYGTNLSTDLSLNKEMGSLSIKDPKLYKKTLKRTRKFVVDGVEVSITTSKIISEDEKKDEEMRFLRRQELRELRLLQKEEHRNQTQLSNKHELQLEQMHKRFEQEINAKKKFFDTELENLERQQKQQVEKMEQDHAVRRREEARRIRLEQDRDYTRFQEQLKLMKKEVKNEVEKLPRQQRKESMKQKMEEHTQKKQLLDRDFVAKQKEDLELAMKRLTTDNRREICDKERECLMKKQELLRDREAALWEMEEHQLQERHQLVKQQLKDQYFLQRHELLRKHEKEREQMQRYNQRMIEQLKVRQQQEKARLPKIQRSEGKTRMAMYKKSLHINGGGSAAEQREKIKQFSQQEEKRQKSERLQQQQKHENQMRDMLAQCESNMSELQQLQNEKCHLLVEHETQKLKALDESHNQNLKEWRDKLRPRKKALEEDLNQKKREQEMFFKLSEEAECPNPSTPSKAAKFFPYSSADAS

Compound | inhibition [1] | inhibition [2] | inhibition [3] | inhibition [4] | IC50 [5] | inhibition [6] | inhibition [7] | inhibition [8] | inhibition [9]
CNC(=O)c1cc(Oc2ccc(NC(=O)c3n[nH]nc3-c3ccc(F)cc3)cc2)ccn1 | 55% | 40% | 65% | 26% | 49 nM | 43% | 32% | 35% | 
CNC(=O)c1cc(Oc2ccc(NC(=O)c3nc(SC)[nH]c3-c3ccc(F)cc3)cc2)ccn1 | 90% | 83% |  | 93% | 19 nM |  | 90% | 93% | 84%
CSc1nc(C(=O)Nc2ccc(Oc3cc4cnn(C)c4cc3Br)cc2)c(-c2ccc(F)cc2)o1 |  |  |  | 36% | 32 nM |  |  |  | 
CNC(=O)c1cc(Oc2ccc(NC(=O)c3nc(C(F)(F)F)sc3-c3ccc(F)cc3)cc2)ccn1 |  |  | 33% | 58% | 9.6 nM |  | 87% |  | 58%
CNC(=O)c1cc(Oc2ccc(NC(=O)c3nc(SC)n(CCN(C)C)c3-c3ccc(F)cc3)cc2)ccn1 | 57% | 51% | 27% | 47% | 23 nM | 42% | 44% |  | 28%

These reach a lower IC50 [5]. Values come first.

inhibition [1] | inhibition [2] | inhibition [3] | inhibition [4] | IC50 [5] | inhibition [6] | inhibition [7] | inhibition [8] | inhibition [9] | Compound
76% | 71% | 47% | 50% | 5.2 nM | 58% | 53% | 51% | 49% | CNC(=O)c1cc(Oc2ccc(NC(=O)c3nc(NC)sc3-c3ccc(F)cc3)cc2)ccn1
25% |  | 25% |  | 5.1 nM | 36% | 34% | 27% |  | CNC(=O)c1cc(Oc2ccc(NC(=O)c3nc(S(C)(=O)=O)sc3-c3ccc(F)cc3)cc2)ccn1
51% | 40% | 40% | 66% | 3.3 nM | 47% | 80% | 48% | 77% | CNC(=O)c1cc(Oc2ccc(NC(=O)c3nc(SC)oc3-c3ccc(F)cc3)cc2)ccn1
46% | 36% |  | 55% | 2.8 nM | 43% | 77% | 39% | 71% | CNC(=O)c1cc(Oc2ccc(NC(=O)c3nc(SC)oc3-c3ccc(F)cc3)cc2F)ccn1

— ChEMBL document CHEMBL4806968, “Hipk inhibitors and methods of use thereof” (2020)
